Results: patent publication US20250277012A1 (Protagonist Therapeutics, Inc., priority 2021, published 2025)
Starred links: 1 amine or outer side, 2 acyl side, 3 side chain; linkers in the order of their positions; H or OH if unused. Positions of bridges follow the written chain, without caps; N, C: chain ends. Non-standard residues stand in square brackets, D forms with d. Residues, ends and D or L forms follow the SMILES beside them. Groups on a side chain read outwards from the residue. *: point of attachment. X2 = C[N+](C)(CCNC(=O)CCCCCCCCCCCCCCCCC(=O)O)CC(=O)NCC[N+](C)(C)CC(=O)*; X1 = C[N+](C)(CCNC(=O)CCCCCCCCCCCCCCCCC(=O)O)CC(=O)*; C18 diacid = O=C(O)CCCCCCCCCCCCCCCCC(=O)*; Dip = N[C@H](C(=O)O)C(c1ccccc1)c1ccccc1; γGlu = O=C(O)[C@H](CCC(=O)[*:2])N[*:1]; Pro(3S-OH) = O=C(O)[C@H]1NCC[C@@H]1O; Palmitoyl = CCCCCCCCCCCCCCCC(=O)*; NMeF = CN[C@@H](Cc1ccccc1)C(=O)O; 3Pal = N[C@@H](Cc1cccnc1)C(=O)O; NMeQ = CN[C@@H](CCC(N)=O)C(=O)O; β3hF = N[C@H](CC(=O)O)Cc1ccccc1; Aad = N[C@@H](CCCC(=O)O)C(=O)O; NMeK = CN[C@@H](CCCCN)C(=O)O; Tle = CC(C)(C)[C@H](N)C(=O)O; Isovaleryl = CC(C)CC(=O)*; NMeC = CN[C@@H](CS)C(=O)O; Dap = NC[C@H](N)C(=O)O; AEEA = NCCOCCOCC(=O)O; Ahx = NCCCCCC(=O)O

Each molecule was assayed against T1, ferroportin (Homo sapiens, UniProt Q9NP59) (assay: T47D cell-based ferroportin internalization assay in presence of mouse serum albumin (MSA)). Details: T47D internalization assay in presence of mouse serum albumin (MSA); Table 6E.
T1 sequence (Q9NP59 1-571): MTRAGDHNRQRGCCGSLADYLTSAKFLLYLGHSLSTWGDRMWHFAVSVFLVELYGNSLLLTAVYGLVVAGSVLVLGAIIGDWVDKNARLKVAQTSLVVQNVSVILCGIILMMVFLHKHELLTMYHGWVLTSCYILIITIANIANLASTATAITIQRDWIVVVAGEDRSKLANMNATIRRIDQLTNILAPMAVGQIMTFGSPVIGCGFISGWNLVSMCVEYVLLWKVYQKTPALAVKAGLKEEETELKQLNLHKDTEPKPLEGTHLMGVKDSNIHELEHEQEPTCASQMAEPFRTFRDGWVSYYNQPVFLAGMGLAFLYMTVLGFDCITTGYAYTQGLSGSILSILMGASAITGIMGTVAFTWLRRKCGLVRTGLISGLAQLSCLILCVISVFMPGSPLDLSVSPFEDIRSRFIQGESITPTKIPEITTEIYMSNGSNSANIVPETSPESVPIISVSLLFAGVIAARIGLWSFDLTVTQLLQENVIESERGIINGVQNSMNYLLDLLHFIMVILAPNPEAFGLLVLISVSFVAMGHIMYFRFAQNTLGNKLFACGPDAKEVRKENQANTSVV
Parameters: a human breast carcinoma adherent cell line which endogenously expresses ferroportin; host or cells: T47D
Procedure, shortened: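 Peptide potency for inducing ferroportin internalization was measured in T47D cells in the presence of serum albumin. Cells grown in RPMI with fetal bovine serum were seeded in 96-well plates at 80-100 k cells per well in 100 ul and rested overnight. Dilution series of test peptides were preincubated 30 min at room temperature, then added to the cells after the medium was aspirated.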

SMILES	IC50
COC(=O)CC[C@H](NC(=O)CC(C)C)C(=O)N[C@H](C(=O)N[C@@H](Cc1c[nH]cn1)C(=O)N[C@H](C(=O)N1CCC[C@H]1C(=O)N[C@H]1CSSC[C@@H](C(=O)N(C)[C@@H](CCCCNC(=O)COCCOCCNC(=O)COCCOCCNC(=O)C[N+](C)(C)CCNC(=O)CCCCCCCCCCCCCCCCC(=O)O)C(=O)N[C@H](C(=O)N[C@H](CCCCN)C(N)=O)C(c2ccccc2)c2ccccc2)NC1=O)C(c1ccccc1)c1ccccc1)[C@@H](C)O [compound 230] (Isovaleryl-E(OMe)TH[Dip]PCC[NMeK]([AEEA-AEEA-X1])[Dip][dK]-NH2; disulfide 6-7)	10 to 100 nM
COC(=O)CC[C@H](NC(=O)CC(C)C)C(=O)N[C@H](C(=O)N[C@@H](Cc1c[nH]cn1)C(=O)N[C@H](C(=O)N1CCC[C@H]1C(=O)N[C@H]1CSSC[C@@H](C(=O)N(C)[C@@H](CCCCNC(=O)COCCOCCNC(=O)COCCOCCNC(=O)C[N+](C)(C)CCNC(=O)CCCCCCCCCCCCCCCCC(=O)O)C(=O)N[C@H](CC(=O)N[C@H](CCCCN)C(N)=O)Cc2ccccc2)NC1=O)C(c1ccccc1)c1ccccc1)[C@@H](C)O [compound 231] (Isovaleryl-E(OMe)TH[Dip]PCC[NMeK]([AEEA-AEEA-X1])[β3hF][dK]-NH2; disulfide 6-7)	10 to 100 nM
CC(C)CC(=O)N[C@@H](CCCC(=O)O)C(=O)N[C@H](C(=O)N[C@@H](Cc1c[nH]cn1)C(=O)N[C@H](C(=O)N1CCC[C@H]1C(=O)N[C@H]1CSSC[C@@H](C(=O)N(C)[C@@H](CCCCNC(=O)COCCOCCNC(=O)COCCOCCNC(=O)[C@H](CN)NC(=O)CCCCCCCCCCCCCCCCC(=O)O)C(=O)N[C@H](CC(=O)N[C@H](CCCCN)C(N)=O)Cc2ccccc2)NC1=O)C(c1ccccc1)c1ccccc1)[C@@H](C)O [compound 244] (Isovaleryl-[Aad]TH[Dip]PCC[NMeK]([AEEA-AEEA-Dap-C18 diacid])[β3hF][dK]-NH2; disulfide 6-7)	10 to 100 nM
CC(C)CC(=O)N[C@@H](CCCC(=O)O)C(=O)N[C@H](C(=O)N[C@@H](Cc1cccnc1)C(=O)N[C@H](C(=O)N1CCC[C@H]1C(=O)N[C@H]1CSSC[C@@H](C(=O)N(C)[C@@H](CCCCNC(=O)COCCOCCNC(=O)COCCOCCNC(=O)[C@H](CN)NC(=O)CCCCCCCCCCCCCCCCC(=O)O)C(=O)N[C@H](CC(=O)N[C@H](CCCCN)C(N)=O)Cc2ccccc2)NC1=O)C(c1ccccc1)c1ccccc1)[C@@H](C)O [compound 246] (Isovaleryl-[Aad]T[3Pal][Dip]PCC[NMeK]([AEEA-AEEA-Dap-C18 diacid])[β3hF][dK]-NH2; disulfide 6-7)	10 to 100 nM
CC(C)CC(=O)N[C@@H](CCC(=O)O)C(=O)N[C@H](C(=O)N[C@@H](Cc1c[nH]cn1)C(=O)N[C@H](C(=O)N1CCC[C@H]1C(=O)N[C@H]1CSSC[C@@H](C(=O)N(C)[C@@H](CCCCNC(=O)COCCOCCNC(=O)COCCOCCNC(=O)[C@H](CN)NC(=O)CCCCCCCCCCCCCCCCC(=O)O)C(=O)N[C@H](CC(=O)N[C@H](CCCCN)C(=O)N(C)[C@@H](CCC(N)=O)C(N)=O)Cc2ccccc2)NC1=O)C(c1ccccc1)c1ccccc1)[C@@H](C)O [compound 251] (Isovaleryl-ETH[Dip]PCC[NMeK]([AEEA-AEEA-Dap-C18 diacid])[β3hF][dK][NMeQ]-NH2; disulfide 6-7)	10 to 100 nM
CC(C)CC(=O)N[C@@H](CCC(=O)O)C(=O)N1CC[C@H](O)[C@H]1C(=O)N[C@@H](Cc1c[nH]cn1)C(=O)N[C@H](C(=O)N1CCC[C@H]1C(=O)N[C@H]1CSSC[C@@H](C(=O)N(C)[C@@H](CCCCNC(=O)COCCOCCNC(=O)COCCOCCNC(=O)[C@H](CN)NC(=O)CCCCCCCCCCCCCCCCC(=O)O)C(=O)N[C@H](CC(=O)N[C@H](CCCCN)C(N)=O)Cc2ccccc2)NC1=O)C(c1ccccc1)c1ccccc1 [compound 253] (Isovaleryl-E[Pro(3S-OH)]H[Dip]PCC[NMeK]([AEEA-AEEA-Dap-C18 diacid])[β3hF][dK]-NH2; disulfide 6-7)	10 to 100 nM
CC(C)CC(=O)N[C@@H](CCC(=O)O)C(=O)N[C@H](C(=O)N[C@@H](Cc1c[nH]cn1)C(=O)N[C@H](C(=O)N1CCC[C@H]1C(=O)N[C@H]1CSSC[C@@H](C(=O)N(C)[C@@H](CCCCNC(=O)COCCOCCNC(=O)COCCOCCNC(=O)[C@H](CN)NC(=O)CCCCCCCCCCCCCCCCC(=O)O)C(=O)N(C)[C@@H](Cc2ccccc2)C(=O)N[C@H](CCCCN)C(N)=O)N(C)C1=O)C(c1ccccc1)c1ccccc1)[C@@H](C)O [compound 266] (Isovaleryl-ETH[Dip]PC[NMeC][NMeK]([AEEA-AEEA-Dap-C18 diacid])[NMeF][dK]-NH2; disulfide 6-7)	10 to 100 nM
CC(C)CC(=O)N[C@@H](CN)C(=O)N[C@H](C(=O)N[C@@H](Cc1c[nH]cn1)C(=O)N[C@H](C(=O)N1CCC[C@H]1C(=O)N[C@H]1CSSC[C@@H](C(=O)N(C)[C@@H](CCCCNC(=O)COCCOCCNC(=O)COCCOCCNC(=O)[C@H](CN)NC(=O)CCCCCCCCCCCCCCCCC(=O)O)C(=O)N[C@H](CC(=O)N[C@H](CCCCN)C(N)=O)Cc2ccccc2)NC1=O)C(c1ccccc1)c1ccccc1)[C@@H](C)O [compound 289] (Isovaleryl-[Dap]TH[Dip]PCC[NMeK]([AEEA-AEEA-Dap-C18 diacid])[β3hF][dK]-NH2; disulfide 6-7)	100 to 500 nM

Same assay, conditions: Table 6E; T47D internalization assay with MSA

IC50	SMILES
10 to 100 nM	COC(=O)CC[C@H](NC(=O)CC(C)C)C(=O)N[C@H](C(=O)N[C@@H](Cc1c[nH]cn1)C(=O)N[C@H](C(=O)N1CCC[C@H]1C(=O)N[C@H]1CSSC[C@@H](C(=O)N[C@H](CCCCNC(=O)CCCCCNC(=O)C[N+](C)(C)CCNC(=O)CCCCCCCCCCCCCCCCC(=O)O)C(=O)N[C@H](C(=O)N[C@H](CCCCN)C(N)=O)C(c2ccccc2)c2ccccc2)NC1=O)C(c1ccccc1)c1ccccc1)[C@@H](C)O [compound 208] (Isovaleryl-E(OMe)TH[Dip]PCC[dK]([Ahx-X1])[Dip][dK]-NH2; disulfide 6-7)
10 to 100 nM	COC(=O)CC[C@H](NC(=O)CC(C)C)C(=O)N[C@H](C(=O)N[C@@H](Cc1c[nH]cn1)C(=O)N[C@H](C(=O)N1CCC[C@H]1C(=O)N[C@H]1CSSC[C@@H](C(=O)N[C@@H](CCCCNC(=O)C[N+](C)(C)CCNC(=O)C[N+](C)(C)CCNC(=O)CCCCCCCCCCCCCCCCC(=O)O)C(=O)N[C@H](C(=O)N[C@H](CCCCN)C(N)=O)C(c2ccccc2)c2ccccc2)NC1=O)C(c1ccccc1)c1ccccc1)[C@@H](C)O [compound 209] (Isovaleryl-E(OMe)TH[Dip]PCCK(X2)[Dip][dK]-NH2; disulfide 6-7)
10 to 100 nM	COC(=O)CC[C@H](NC(=O)CC(C)C)C(=O)N[C@H](C(=O)N[C@@H](Cc1c[nH]cn1)C(=O)N[C@H](C(=O)N1CCC[C@H]1C(=O)N[C@H]1CSSC[C@@H](C(=O)N[C@@H](CCCCNC(=O)CCCCCNC(=O)C[N+](C)(C)CCNC(=O)CCCCCCCCCCCCCCCCC(=O)O)C(=O)N[C@H](C(=O)N[C@H](CCCCN)C(N)=O)C(c2ccccc2)c2ccccc2)NC1=O)C(c1ccccc1)c1ccccc1)[C@@H](C)O [compound 211] (Isovaleryl-E(OMe)TH[Dip]PCCK([Ahx-X1])[Dip][dK]-NH2; disulfide 6-7)
10 to 100 nM	COC(=O)CC[C@H](NC(=O)CC(C)C)C(=O)N[C@H](C(=O)N[C@@H](Cc1c[nH]cn1)C(=O)N[C@H](C(=O)N1CCC[C@H]1C(=O)N[C@H]1CSSC[C@@H](C(=O)N[C@H](CCCCNC(=O)CCCCCNC(=O)C[N+](C)(C)CCNC(=O)CCCCCCCCCCCCCCCCC(=O)O)C(=O)N[C@H](C(=O)N[C@H](C(N)=O)C(C)(C)C)C(c2ccccc2)c2ccccc2)NC1=O)C(c1ccccc1)c1ccccc1)[C@@H](C)O [compound 212] (Isovaleryl-E(OMe)TH[Dip]PCC[dK]([Ahx-X1])[Dip][Tle]-NH2; disulfide 6-7)
10 to 100 nM	COC(=O)CC[C@H](NC(=O)CC(C)C)C(=O)N[C@H](C(=O)N[C@@H](Cc1c[nH]cn1)C(=O)N[C@H](C(=O)N1CCC[C@H]1C(=O)N[C@H]1CSSC[C@@H](C(=O)N[C@H](CCCCNC(=O)CCCCCNC(=O)C[N+](C)(C)CCNC(=O)CCCCCCCCCCCCCCCCC(=O)O)C(=O)N[C@H](CC(=O)N[C@H](CCCCN)C(N)=O)Cc2ccccc2)NC1=O)C(c1ccccc1)c1ccccc1)[C@@H](C)O [compound 213] (Isovaleryl-E(OMe)TH[Dip]PCC[dK]([Ahx-X1])[β3hF][dK]-NH2; disulfide 6-7)

Continued, molecule first:

SMILES	IC50
CC(C)CC(=O)NC(CCC(=O)O)C(=O)NC(C(=O)NC(Cc1cnc[nH]1)C(=O)NC(C(=O)N1CCCC1C(=O)NC1CSCc2ccc(cc2)CSCC(C(=O)N(C)C(CCCCNC(=O)COCCOCCNC(=O)COCCOCCNC(=O)C(CN)NC(=O)CCCCCCCCCCCCCCCCC(=O)O)C(=O)NC(CC(=O)NC(CCCCN)C(N)=O)Cc2ccccc2)NC1=O)C(c1ccccc1)c1ccccc1)C(C)O (stereo not drawn) [compound 218]	10 to 100 nM
CCCCCCCCCCCCCCCC(=O)N[C@@H](CCC(=O)NCCCC[C@@H](C(=O)N[C@H](CC(=O)N[C@H](CCCCN)C(N)=O)Cc1ccccc1)N(C)C(=O)[C@@H]1CSSC[C@H](NC(=O)[C@@H]2CCCN2C(=O)[C@@H](NC(=O)[C@H](Cc2cnc[nH]2)NC(=O)[C@@H](NC(=O)[C@H](CCC(=O)O)NC(=O)CC(C)C)[C@@H](C)O)C(c2ccccc2)c2ccccc2)C(=O)N1)C(=O)O [compound 223] (Isovaleryl-ETH[Dip]PCC[NMeK]([γGlu-Palmitoyl])[β3hF][dK]-NH2; disulfide 6-7)	1 to 10 nM
